The values that follow come from patent US20080004282A1, “Compositions and methods for modulating gated ion channels” (PainCeptor Pharma Corporation, priority 2006, published 2008).

Some results are limits rather than exact numbers.

Experiment [1] deals with thermal hyperalgesia from carrageenan-induced acute paw inflammation. In words: Carrageenan model, thermal hyperalgesia (Hargreaves' assay). It is filed as in vivo. Conditions: rat, 20 mg/kg s.c. 30 min prior to carrageenan, 2-3 hours post-carrageenan. How it is done:
Carrageenan Model for Pain
Acute inflammatory hyperalgesia is induced in rats by unilateral injection of […] of a 3% solution of 1-carrageenan into the plantar surface of the left hind paw 2-4 h prior to testing. Thermal nociceptive thresholds are determined according to the method described elsewhere (Hargreaves et al., 1988). Briefly, through the glass surface, a radiant heat source (8 V, 50 W projector bulb) is focused onto the plantar surface of the hind paw. The rat's paw-withdrawal latency to this stimulus is recorded to the nearest 0.1 s. Each latency score is an average of three trials, which are separated by at least 5 min. In all rats, both the injured and uninjured hind paws are similarly tested, allowing direct comparisons between inflamed and non-inflamed paws.
FIG. 7 illustrates the effect of Compound 44 (20 mg/kg s.c.) on the thermal hyperalgesia (observed in the Hargreaves' assay) resulting from an acute paw inflammation caused by the intraplantar injection of 150 μl of a 3% solution of λ-carrageenan. Compound 44 was given 30 min prior to carrageenan injection and thermal hyperalgesia was tested 2, 3, and 4 h post carrageenan injection.

In a further experiment the target is T1, ASIC1a (Homo sapiens, UniProt P78348).
T1 sequence (P78348 1-528): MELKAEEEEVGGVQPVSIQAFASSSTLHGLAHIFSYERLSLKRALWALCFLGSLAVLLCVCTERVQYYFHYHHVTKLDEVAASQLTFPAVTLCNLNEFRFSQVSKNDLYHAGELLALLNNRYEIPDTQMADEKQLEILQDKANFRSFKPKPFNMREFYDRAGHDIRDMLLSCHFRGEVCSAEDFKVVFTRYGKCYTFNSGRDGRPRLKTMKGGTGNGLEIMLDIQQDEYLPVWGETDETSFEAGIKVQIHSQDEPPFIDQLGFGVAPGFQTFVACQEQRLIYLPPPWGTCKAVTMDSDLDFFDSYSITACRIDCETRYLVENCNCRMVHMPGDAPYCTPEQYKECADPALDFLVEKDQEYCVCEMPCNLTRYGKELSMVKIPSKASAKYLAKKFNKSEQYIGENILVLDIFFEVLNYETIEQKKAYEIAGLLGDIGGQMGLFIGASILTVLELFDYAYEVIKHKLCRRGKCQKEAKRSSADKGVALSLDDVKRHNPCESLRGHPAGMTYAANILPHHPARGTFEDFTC
In words: Calcium-imaging (FLIPR) of MES-induced calcium response in ASIC1a expressing HEK293 cells. Type of experiment: cell-based. The arrangement: host or cells: HEK293. How it is done: Identification of ASIC Antagonists Using Calcium-Imaging
ASIC1a expressing HEK293 cells are grown in culture medium (DMEM with 10% FBS), in polystyrene culture flasks (175 mm 2) at 37° C. in a humidified atmosphere of 5% CO2. Confluency of cells should be 80-90% on day of plating. Cells are rinsed with 10 ml of PBS and cells are re-suspended by addition of culture medium and trituration with a 25 ml pipette.
The cells are seeded at a density of approximately 1×10^6 cells/ml (100 μl/well) in black-walled, clear bottom, 96-well plates pre-treated with 10 mg/l poly-D-lysin (75 μl/well for ≧30 min). Plated cells are allowed to proliferate for 24 h before loading with dye.
Loading with Fluorescent Calcium Dye Fluo-4/AM
Fluo-4/AM (1 mg, Molecular Probes) is dissolved in 912 μl DMSO. The Fluo-4/AM stock solution (1 mM) is diluted with culture medium to a final concentration of 2 μM (loading solution).
The culture medium is aspirated from the wells, and 50 μl of the Fluo-4/AM loading solution is added to each well. The cells are incubated at 37° C. for 30 min.
After the loading period, the loading solution is aspirated and the cells are washed twice with 100 μl modified Assay Buffer (145 mM NaCl, 5 mM KCl, 5 mM CaCl2, 1 mM MgCl2, 10 mM HEPES, pH 7.4) to remove extracellular dye. Following the second wash, 100 μl modified Assay Buffer is added to each well and the fluorescence is measured in FLIPR™ or FlexStation™ (Molecular Devices, USA), or any other suitable equipment known to the skilled in the art.
Temperature: Room temperature (20-22° C.)
First addition: 50 μl test solution at a rate of 30 μl/sec and a starting height of […]
Second addition: 50 μl MES solution (20 mM, 5 mM final concentration) at a rate of 35 μl/sec and a starting height of 150 μl.
Reading intervals: pre-incubation—10 sec×7 and 3 sec×3 antagonist phase—3 sec×17 and 10 sec×12
Addition plates (compound test plate and MES plate) are placed on the right and left positions in the FLIPR tray, respectively. Cell plates are placed in the middle position and the ASIC1a program is effectuated. FLIPR will then take the appropriate measurements in accordance with the interval settings above. Fluorescence obtained after stimulation is corrected for the mean basal fluorescence (in modified Assay Buffer).
Hit Confirmation and Characterization of Active Substances
The MES-induced peak calcium response, in the presence of test substance, is expressed relatively to the MES response alone. Test substances that block the MES-induced calcium response are re-tested in triplicates. […]

In general, IC50 refers to the concentration at which inhibition is half-maximal. In the case of `CCN1CCc2c(-c3cc(Cl)ccc3OC)cc(C#N)c(N)c2C1` [Compound 44], the “effect on thermal hyperalgesia” value in experiment [1] is listed as “completely reversed”. The 50% inhibitory concentration (IC50) on ASIC1a was less than 10 µM.
